Experiment [1] addresses Sodium-dependent dopamine transporter (Mus musculus) (UniProt Q61327). Description: […] from mouse DAT in striatal membranes at 10000 nM. The following applies: Striatum, Membrane. In kind it is cell membranes.
For the next experiment, the species on record is Cavia porcellus. The experiment in a line: Selectivity ratio of Ki for guinea pig brain sigma2 receptor to Ki for guinea pig brain sigma1 receptor.
Experiment [2] in a line: Selectivity ratio of Ki for mouse DAT to Ki for guinea pig brain sigma1 receptor.
Experiment [3] has as its target Sodium-dependent dopamine transporter (Mus musculus, UniProt Q61327). Description: Displacement of [3H]RTI-121 from mouse DAT in striatal membranes. In kind it is cell membranes, Striatum, Membrane.
Experiment [4] is described as follows: Displacement of [3H]DTG from sigma2 receptor in guinea pig brain membrane after 120 mins by scintillation counting analysis. In kind it is cell membranes, Cavia porcellus. For orientation: Loss of bound radioactivity is the signal in a displacement assay; it reports binding, not function.
Experiment [5] addresses Sigma non-opioid intracellular receptor 1 (Cavia porcellus, UniProt Q60492). Description: Displacement of [3H]-(+)-pentazocine from sigma1 receptor in guinea pig brain membrane after 150 mins by scintillation counting analysis. In kind it is cell membranes.
Experiment [6] has as its target Sodium-dependent serotonin transporter (Mus musculus, UniProt Q60857). The experiment in a line: Displacement of [3H]paroxetine from mouse SERT in whole brain membrane. The experiment is classed as cell membranes.
Experiment [7] in a line: Selectivity ratio of Ki for mouse SERT to Ki for guinea pig brain sigma1 receptor.

Sodium-dependent serotonin transporter, sequence (Q60857 whole entry): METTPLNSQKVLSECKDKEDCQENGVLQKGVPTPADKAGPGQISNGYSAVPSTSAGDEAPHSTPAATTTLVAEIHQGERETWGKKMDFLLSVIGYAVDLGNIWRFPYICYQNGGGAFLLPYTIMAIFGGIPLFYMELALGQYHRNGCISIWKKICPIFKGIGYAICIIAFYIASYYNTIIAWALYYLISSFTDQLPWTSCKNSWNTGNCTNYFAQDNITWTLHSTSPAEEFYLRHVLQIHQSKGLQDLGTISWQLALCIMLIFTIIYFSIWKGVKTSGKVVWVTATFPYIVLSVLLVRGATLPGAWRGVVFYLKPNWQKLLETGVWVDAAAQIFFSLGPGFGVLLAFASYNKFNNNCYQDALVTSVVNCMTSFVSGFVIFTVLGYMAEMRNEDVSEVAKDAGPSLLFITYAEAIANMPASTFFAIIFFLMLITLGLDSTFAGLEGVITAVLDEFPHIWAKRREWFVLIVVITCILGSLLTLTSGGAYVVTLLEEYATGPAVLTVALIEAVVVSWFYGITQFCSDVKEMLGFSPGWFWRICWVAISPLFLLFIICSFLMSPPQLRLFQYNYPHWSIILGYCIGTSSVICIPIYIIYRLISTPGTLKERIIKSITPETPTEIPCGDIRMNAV
Sodium-dependent dopamine transporter (Mus musculus), sequence (Q61327 whole entry): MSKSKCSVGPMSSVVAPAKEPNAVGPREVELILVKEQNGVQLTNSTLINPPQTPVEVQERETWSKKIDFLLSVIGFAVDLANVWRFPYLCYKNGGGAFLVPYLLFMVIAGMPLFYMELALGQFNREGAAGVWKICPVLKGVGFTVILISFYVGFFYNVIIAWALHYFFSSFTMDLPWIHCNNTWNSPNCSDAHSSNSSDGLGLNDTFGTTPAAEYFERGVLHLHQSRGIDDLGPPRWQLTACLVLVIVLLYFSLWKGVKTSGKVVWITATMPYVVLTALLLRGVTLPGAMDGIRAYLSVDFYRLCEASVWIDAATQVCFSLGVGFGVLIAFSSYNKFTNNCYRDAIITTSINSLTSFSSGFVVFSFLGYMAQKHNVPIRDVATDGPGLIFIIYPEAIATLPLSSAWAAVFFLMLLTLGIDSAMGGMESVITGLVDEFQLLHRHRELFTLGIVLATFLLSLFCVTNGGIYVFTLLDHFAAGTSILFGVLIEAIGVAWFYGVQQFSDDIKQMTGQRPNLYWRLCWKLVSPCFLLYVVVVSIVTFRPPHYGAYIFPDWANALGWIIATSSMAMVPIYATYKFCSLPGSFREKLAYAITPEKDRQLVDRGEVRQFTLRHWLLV
Sodium-dependent dopamine transporter, sequence (Q61327 whole entry): as above
Sigma non-opioid intracellular receptor 1, sequence (Q60492 whole entry): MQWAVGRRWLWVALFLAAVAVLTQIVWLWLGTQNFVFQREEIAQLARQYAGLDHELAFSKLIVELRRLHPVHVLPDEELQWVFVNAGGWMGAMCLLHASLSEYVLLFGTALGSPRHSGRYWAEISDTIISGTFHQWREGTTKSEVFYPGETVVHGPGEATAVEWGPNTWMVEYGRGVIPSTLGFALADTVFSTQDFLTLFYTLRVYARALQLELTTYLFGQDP

A word on the Ki: it is a measure of affinity in units of concentration, obtained from inhibition or displacement. Higher therefore signals weaker binding. With `COc1cc(CCN2CCN(CCCc3ccccc3)CC2)ccc1OCCCc1ccccc1`, in experiment [1], the Inhibition % is 97%. The Ratio Ki in the experiment filed under Cavia porcellus is 1.3; in experiment [2] it was 5. In addition, the Ki in experiment [3] was 87 nM; in experiment [4], 23.3 nM; in experiment [5] it was 18.4 nM.

`Clc1ccc(CCN2CCN(CCCc3ccccc3)CC2)cc1Cl`: the inhibition constant (Ki) in experiment [6] came to 2860 nM; in experiment [4], 38.8 nM; in experiment [5], 2.2 nM.

In the case of `COc1cc(CCN2CCN(CCCc3ccccc3)CC2)ccc1O`, the Ratio Ki in the experiment filed under Cavia porcellus worked out at 3.8. Besides, the Ki came out at 6.72 nM in experiment [4] and 1.75 nM in experiment [5].

In experiment [1], `COc1cc(CCN2CCN(CCCc3ccccc3)CC2)ccc1OCc1ccccc1` showed an Inhibition % of 93%. In addition, the Ratio Ki came to 0.8 in the experiment filed under Cavia porcellus, 6 in experiment [2] and 6.2 in experiment [7]. The Ki in experiment [3] stood at 121 nM; in experiment [6] it was 128 nM; in experiment [4], 16.4 nM; in experiment [5] it was 20.8 nM.

Take `COc1ccc(CCN2CCN(CCCc3ccccc3)CC2)cc1`: the Ratio Ki in the experiment filed under Cavia porcellus worked out at 22; in experiment [2] it was 1130; in experiment [7], 1330. Also, the Ki in experiment [3] stood at 1470 nM; in experiment [6], 1730 nM; in experiment [4], 28.6 nM; in experiment [5], 1.3 nM.

Regarding `COc1cc(CCN2CCN(CCCc3ccccc3)CC2)ccc1OCCBr`, the Inhibition % in experiment [1] is 38%. In addition, in the experiment listed under Cavia porcellus, the Ratio Ki amounted to 1.1. The Ki in experiment [4] came out at 27.1 nM; in experiment [5] it was 25.4 nM.

As to `COc1cccc(CCN2CCN(CCCc3ccccc3)CC2)c1`, the Ratio Ki in the experiment listed under Cavia porcellus turned out to be 7.3; in experiment [2], 1010; in experiment [7], 703. Also, the Ki in experiment [3] was determined as 1410 nM; in experiment [6] it was 985 nM; in experiment [4], 10.2 nM; in experiment [5], 1.4 nM.

For the molecule `COc1ccc(CCN2CCN(CCCc3ccccc3)CC2)cc1OC` [[11C]SA4503], the Ki was 760 nM in experiment [6] and 63.1 nM in experiment [4].

Take `COc1cc(CCN2CCN(CCCc3ccccc3)CC2)ccc1OCF`: in experiment [1], the Inhibition % is 19%. In addition, the Ratio Ki in the experiment filed under Cavia porcellus came out at 39. Also, the Ki in experiment [4] came to 250 nM; in experiment [5], 6.4 nM.

`c1ccc(CCCN2CCN(CCc3ccc4c(c3)OCCCO4)CC2)cc1` had an Inhibition % in experiment [1] of 43%. The Ratio Ki in the experiment listed under Cavia porcellus came out at 2.7. For the same molecule, the values for the Ki in experiment [4] and in experiment [5] were 52.1 nM and 19.1 nM, respectively.

As for `COc1cc(CCN2CCN(CCCc3ccccc3)CC2)ccc1OC/C=C/I`, the Inhibition % in experiment [1] amounted to 69%. Further, the Ratio Ki in the experiment listed under Cavia porcellus was determined as 1.1; in experiment [2] it was 33; in experiment [7] it was 10.3. Also, the Ki in experiment [3] is 560 nM; in experiment [6] it was 174 nM; in experiment [4] it was 18.2 nM; in experiment [5] it was 16.9 nM.

`CCCOc1ccc(CCN2CCN(CCCc3ccccc3)CC2)cc1OC`: the Inhibition % in experiment [1] stood at 43%. Besides, the Ratio Ki in the experiment filed under Cavia porcellus amounted to 1.3; in experiment [2] it was 71; in experiment [7], 4.8. In addition, the Ki was determined as 1820 nM in experiment [3], 124 nM in experiment [6], 33.4 nM in experiment [4] and 25.6 nM in experiment [5].

In turn, `COc1cc(CCN2CCN(CCCc3ccccc3)CC2)ccc1OC/C=C\I` came in with an Inhibition % in experiment [1] of 94%. Also, the Ratio Ki in the experiment listed under Cavia porcellus worked out at 1.6; in experiment [2], 22. Also, the values for the inhibition constant Ki in experiment [3], in experiment [4] and in experiment [5] were 237 nM, 16.7 nM and 10.7 nM, respectively.

Molecule `COc1cc(CCN2CCN(CCCc3ccccc3)CC2)ccc1OCCc1ccccc1` came in with an Inhibition % in experiment [1] of 89%. For the same molecule, the Ratio Ki in the experiment listed under Cavia porcellus worked out at 1.2. For the same molecule, the Ki in experiment [4] turned out to be 16.6 nM; in experiment [5], 13.3 nM.

The molecule `c1ccc(CCCN2CCN(CCc3ccc4c(c3)OCCO4)CC2)cc1` had an Inhibition % in experiment [1] of 33%. The Ratio Ki in the experiment filed under Cavia porcellus was 3.4. Further, the Ki in experiment [4] was determined as 35.2 nM; in experiment [5], 10.2 nM.

`COc1ccccc1CCN1CCN(CCCc2ccccc2)CC1` registered a Ki in experiment [4] of 7.5 nM.

For the molecule `C=CCOc1ccc(CCN2CCN(CCCc3ccccc3)CC2)cc1OC`, the Inhibition % in experiment [1] came to 44%. Besides, the values for the Ratio Ki (in the experiment filed under Cavia porcellus; in experiment [2]; in experiment [7]) were 1.4, 69 and 9.8, respectively. The Ki stood at 2080 nM in experiment [3], 295 nM in experiment [6], 42.1 nM in experiment [4] and 30.1 nM in experiment [5].

On to `c1ccc(CCCN2CCN(CCc3ccc4c(c3)OCO4)CC2)cc1`, for which the Inhibition % in experiment [1] was determined as 42%. Moreover, the Ratio Ki in the experiment listed under Cavia porcellus was found to be 5.8; in experiment [2] it was 721; in experiment [7], 184. The Ki turned out to be 1840 nM in experiment [3], 468 nM in experiment [6], 14.8 nM in experiment [4] and 2.55 nM in experiment [5].

Turning to `COc1cc(CCN2CCN(CCCc3ccccc3)CC2)ccc1OCCF`, in experiment [1], the Inhibition % came out at 23%. In addition, the Ratio Ki in the experiment listed under Cavia porcellus was found to be 14.1. For the same molecule, the Ki is 113 nM in experiment [4] and 8.03 nM in experiment [5].

The record behind these values is ChEMBL document CHEMBL3352167 (Bioorg Med Chem, 2015).
